Laboratory results from ChEMBL document CHEMBL4715697, “Synthesis and biological activity of benzamide DNA minor groove binders” (2016).

How the values were obtained:
Assay type in all cases: functional
MDA-MB-468 = experiment: Growth inhibition of human MDA-MB-468 cells assessed as cell growth at 0.01 uM incubated for 48 hrs by sulforhodamine B assay relative to control; details: read-out: Activity
IGROV-1 [1] = experiment: Growth inhibition of human IGROV-1 cells assessed as cell growth at 0.1 uM incubated for 48 hrs by sulforhodamine B assay relative to control; details: read-out: Activity
OVCAR-8 [2] = experiment: Growth inhibition of human OVCAR-8 cells assessed as cell growth at 0.1 uM incubated for 48 hrs by sulforhodamine B assay relative to control; details: read-out: Activity
DU-145 = experiment: Growth inhibition of human DU-145 cells assessed as cell growth at 0.01 uM incubated for 48 hrs by sulforhodamine B assay relative to control; details: read-out: Activity
MCF7 [3] = experiment: Growth inhibition of human MCF7 cells assessed as cell growth at 0.01 uM incubated for 48 hrs by sulforhodamine B assay relative to control; details: read-out: Activity
OVCAR-8 [4] = experiment: Growth inhibition of human OVCAR-8 cells incubated for 48 hrs by sulforhodamine B assay
IGROV-1 [5] = experiment: Growth inhibition of human IGROV-1 cells assessed as cell growth at 100 uM incubated for 48 hrs by sulforhodamine B assay relative to control; details: read-out: Activity
UO-31 [6] = experiment: Growth inhibition of human UO-31 cells assessed as cell growth at 1 uM incubated for 48 hrs by sulforhodamine B assay relative to control; details: read-out: Activity
RXF 393 [7] = experiment: Growth inhibition of human RXF 393 cells assessed as cell growth at 0.1 uM incubated for 48 hrs by sulforhodamine B assay relative to control; details: read-out: Activity
NCI/ADR-RES [8] = experiment: Growth inhibition of human NCI/ADR-RES cells assessed as cell growth at 100 uM incubated for 48 hrs by sulforhodamine B assay relative to control; details: read-out: Activity
MDA-MB-435 = experiment: Growth inhibition of human MDA-MB-435 cells assessed as cell growth at 1 uM incubated for 48 hrs by sulforhodamine B assay relative to control; details: read-out: Activity
UACC-62 = experiment: Growth inhibition of human UACC-62 cells assessed as cell growth at 100 uM incubated for 48 hrs by sulforhodamine B assay relative to control; details: read-out: Activity
NCI-H460 = experiment: Growth inhibition of human NCI-H460 cells assessed as cell growth at 1 uM incubated for 48 hrs by sulforhodamine B assay relative to control; details: read-out: Activity
Hs-578T = experiment: Growth inhibition of human Hs-578T cells assessed as cell growth at 100 uM incubated for 48 hrs by sulforhodamine B assay relative to control; details: read-out: Activity
SW-620 = experiment: Growth inhibition of human SW-620 cells incubated for 48 hrs by sulforhodamine B assay
NCI-H226 = experiment: Growth inhibition of human NCI-H226 cells assessed as cell growth at 0.01 uM incubated for 48 hrs by sulforhodamine B assay relative to control; details: read-out: Activity
MCF7 [9] = experiment: Growth inhibition of human MCF7 cells incubated for 48 hrs by sulforhodamine B assay
HL-60(TB) = experiment: Growth inhibition of human HL-60(TB) cells assessed as cell growth at 0.01 uM incubated for 48 hrs by sulforhodamine B assay relative to control; details: read-out: Activity
T47D = experiment: Growth inhibition of human T47D cells incubated for 48 hrs by sulforhodamine B assay
EKVX = experiment: Growth inhibition of human EKVX cells assessed as cell growth at 0.01 uM incubated for 48 hrs by sulforhodamine B assay relative to control; details: read-out: Activity
NCI-H522 = experiment: Growth inhibition of human NCI-H522 cells assessed as cell growth at 1 uM incubated for 48 hrs by sulforhodamine B assay relative to control; details: read-out: Activity
A498 = experiment: Growth inhibition of human A498 cells assessed as cell growth at 0.1 uM incubated for 48 hrs by sulforhodamine B assay relative to control; details: read-out: Activity
NCI-H23 = experiment: Growth inhibition of human NCI-H23 cells assessed as cell growth at 0.1 uM incubated for 48 hrs by sulforhodamine B assay relative to control; details: read-out: Activity
NCI/ADR-RES [10] = experiment: Growth inhibition of human NCI/ADR-RES cells assessed as cell growth at 1 uM incubated for 48 hrs by sulforhodamine B assay relative to control; details: read-out: Activity
RXF 393 [11] = experiment: Growth inhibition of human RXF 393 cells assessed as cell growth at 0.01 uM incubated for 48 hrs by sulforhodamine B assay relative to control; details: read-out: Activity
OVCAR-5 = experiment: Growth inhibition of human OVCAR-5 cells assessed as cell growth at 0.1 uM incubated for 48 hrs by sulforhodamine B assay relative to control; details: read-out: Activity
UO-31 [12] = experiment: Growth inhibition of human UO-31 cells assessed as cell growth at 100 uM incubated for 48 hrs by sulforhodamine B assay relative to control; details: read-out: Activity
SNB-75 [13] = experiment: Growth inhibition of human SNB-75 cells assessed as cell growth at 0.1 uM incubated for 48 hrs by sulforhodamine B assay relative to control; details: read-out: Activity
UO-31 [14] = experiment: Growth inhibition of human UO-31 cells incubated for 48 hrs by sulforhodamine B assay
OVCAR-3 = experiment: Growth inhibition of human OVCAR-3 cells assessed as cell growth at 100 uM incubated for 48 hrs by sulforhodamine B assay relative to control; details: read-out: Activity
ACHN = experiment: Growth inhibition of human ACHN cells assessed as cell growth at 0.1 uM incubated for 48 hrs by sulforhodamine B assay relative to control; details: read-out: Activity
MOLT-4 = experiment: Growth inhibition of human MOLT-4 cells assessed as cell growth at 0.1 uM incubated for 48 hrs by sulforhodamine B assay relative to control; details: read-out: Activity
BT-549 = experiment: Growth inhibition of human BT-549 cells assessed as cell growth at 0.01 uM incubated for 48 hrs by sulforhodamine B assay relative to control; details: read-out: Activity
NCI-H322M = experiment: Growth inhibition of human NCI-H322M cells incubated for 48 hrs by sulforhodamine B assay
SNB-75 [15] = experiment: Growth inhibition of human SNB-75 cells assessed as cell growth at 0.01 uM incubated for 48 hrs by sulforhodamine B assay relative to control; details: read-out: Activity
[16] = read-out: LC50 (the source's name)
[17] = read-out: pLC50 (the source's name) (converted)

`CC(=O)Nc1cc(CCl)cc(NC(=O)c2ccc(C(=O)Nc3cccc(NC(=O)CCCN(C)C)c3)cc2)c1` was tested, and the growth at 0.01 µM (MDA-MB-468) was 90%, the growth at 0.1 µM (IGROV-1 [1]) was 113% and the growth at 0.1 µM (OVCAR-8 [2]) was 97%. For the same molecule, the growth at 0.01 µM (DU-145) was 106%, the growth at 0.01 µM (MCF7 [3]) was 88% and the GI50 (OVCAR-8 [4]; read-out: GI50) was > 100 µM. The CC50 (OVCAR-8 [4]; [16]) was > 100 µM, the TGI (OVCAR-8 [4]; read-out: TGI) was > 100 µM and the GI50 (OVCAR-8 [4]; read-out: pGI50 (converted)) was > 100 µM. For the same molecule, the CC50 (OVCAR-8 [4]; [17]) was > 100 µM, the TGI (OVCAR-8 [4]; read-out: pTGI) was > 100 µM and the growth at 100 µM (IGROV-1 [5]) was 100%. For the same molecule, the growth at 1 µM (UO-31 [6]) was 97%, the growth at 0.1 µM (RXF 393 [7]) was 94% and the growth at 100 µM (NCI/ADR-RES [8]) was 85%. It also gave a growth at 1 µM (MDA-MB-435) of 97%, a growth at 100 µM (UACC-62) of 84% and a growth at 1 µM (NCI-H460) of 109%. For the same molecule, the growth at 100 µM (Hs-578T) was 107%, the GI50 (SW-620; read-out: GI50) was > 100 µM and the LC50 (SW-620; read-out: LC50) was > 100 µM. The TGI (SW-620; read-out: TGI) was > 100 µM, the GI50 (SW-620; read-out: pGI50 (converted)) was > 100 µM and the LC50 (SW-620; read-out: pLC50 (converted)) was > 100 µM. For the same molecule, the TGI (SW-620; read-out: pTGI) was > 100 µM, the growth at 0.01 µM (NCI-H226) was 95% and the GI50 (MCF7 [9]; read-out: GI50) was 30.1 µM. For the same molecule, the CC50 (MCF7 [9]; [16]) was > 100 µM, the TGI (MCF7 [9]; read-out: TGI) was > 100 µM and the GI50 (MCF7 [9]; read-out: pGI50 (converted)) was 30.2 µM. The CC50 (MCF7 [9]; [17]) was > 100 µM, the TGI (MCF7 [9]; read-out: pTGI) was > 100 µM and the growth at 0.01 µM (HL-60(TB)) was 86%. For the same molecule, the GI50 (T47D; read-out: GI50) was > 100 µM, the CC50 (T47D; [16]) was > 100 µM and the TGI (T47D; read-out: TGI) was > 100 µM. For the same molecule, the GI50 (T47D; read-out: pGI50 (converted)) was > 100 µM, the CC50 (T47D; [17]) was > 100 µM and the TGI (T47D; read-out: pTGI) was > 100 µM. The growth at 0.01 µM (EKVX) was 93%, the growth at 1 µM (NCI-H522) was 89% and the growth at 0.1 µM (A498) was 73%. The growth at 0.1 µM (NCI-H23) was 98%, the growth at 1 µM (NCI/ADR-RES [10]) was 95% and the growth at 0.01 µM (RXF 393 [11]) was 96%. It also gave a growth at 0.1 µM (OVCAR-5) of 88%, a growth at 100 µM (UO-31 [12]) of 113% and a growth at 0.1 µM (SNB-75 [13]) of 77%. For the same molecule, the GI50 (UO-31 [14]; read-out: GI50) was > 100 µM, the CC50 (UO-31 [14]; [16]) was > 100 µM and the TGI (UO-31 [14]; read-out: TGI) was > 100 µM. The GI50 (UO-31 [14]; read-out: pGI50 (converted)) was > 100 µM, the CC50 (UO-31 [14]; [17]) was > 100 µM and the TGI (UO-31 [14]; read-out: pTGI) was > 100 µM. It also gave a growth at 100 µM (OVCAR-3) of 105%, a growth at 0.1 µM (ACHN) of 101% and a growth at 0.1 µM (MOLT-4) of 95%. For the same molecule, the growth at 0.01 µM (BT-549) was 104%, the GI50 (NCI-H322M; read-out: GI50) was > 100 µM and the CC50 (NCI-H322M; [16]) was > 100 µM. The TGI (NCI-H322M; read-out: TGI) was > 100 µM, the GI50 (NCI-H322M; read-out: pGI50 (converted)) was > 100 µM and the CC50 (NCI-H322M; [17]) was > 100 µM. The TGI (NCI-H322M; read-out: pTGI) was > 100 µM and the growth at 0.01 µM (SNB-75 [15]) was 82%.
